According to patent US9334271B2, “Purine derivatives and their use in the treatment of disease” (Novarits AG, priority 2012, dated 2016):
Where two headings read alike, the source gives them in different places.

Tests used:
[1] = tested on: H4 mCherry-GFP-LC3 cells; assay: Test 3: Autophagy assay (mCherry-GFP-LC3 reporter, high-content imaging); assay type: cell-based, human; details: 16-18 h treatment, mCherry-positive LC3 puncta/cell; for EC50: Homo sapiens
Source text: Autophagy is a catabolic pathway that degrades bulk cytosol in lysosomal compartments enabling amino acids and fatty acids to be recycled. One of the key regulators of autophagy is the mammalian target of rapamycin (mTOR), a conserved serine/threonine kinase which suppresses the initiation of the autophagic process when nutrients, growth factors and energy are available. To quantify autophagy induction by mTOR inhibitors, we use a mCherry-GFP-LC3 reporter which is amenable to retroviral delivery into mammalian cells, stable expression and analysis by fluorescence microscopy.
The amino acid sequence of the mCherry-GFP-LC3 construct is shown below (SEQ ID NO: 1). The mCherry sequence is underlined, GFP sequence is in bold and LC3A sequence is boxed.
Described hereinafter is an imaging protocol and image recognition algorithm to visualize and measure changes in the autophagic pathway.
Quantification of Autophagy Using High-Content Imaging and Analysis
• 1. Day 0: Cell plating. Subconfluent H4 mCherry-GFP-LC3 cells are harvested by trypsinization, resuspended in growth medium, and counted (H4 cells: Human neuroglioma cell line (ATCC)). A cell suspension of 66′000 cells/mL is prepared and 30 μL are added into the wells of a 384-well plate using an electronic multichannel pipette. […] The cell plates are briefly spun down and placed at 37° C. and 5% CO2. • 2. Day 1: Compound treatment. Compound dose responses are prepared in DMSO. The dose responses are then diluted 1:50 in medium. 10 ul of the diluted compound is added to 30 ul of cells, yielding a final 1:200 dilution of the original compound and final of 0.5% DMSO. Compound-treatments are performed in triplicates. The 384-well plates are placed at 37° C. and 5% CO2. Compound treatment is performed for 16-18 h (see Note 1). • 3. Day 2: Cell fixation. Cells are fixed by adding 10 μL/well 5× concentrated Mirsky's fixative supplemented with 25 μg/mL Hoechst33342. […] The 384-well plate is briefly spun down and incubated for 1 h at room temperature. Cells are then washed using a 384-well plate washer using a protocol which aspirates the volume down to 10 μL/well before dispensing 100 μL/well 1×TBS. Aspiration and dispensing steps are repeated 4 times and a final volume of 100 μL/well is left. The plate is sealed using an adhesive PCR foil. • 4. Imaging. The bottom of the plate is cleaned with 70% ethanol and then imaged using the InCell 1000 automated epifluorescence microscope. 20× magnification is used and 4 different areas (fields) are imaged per well, this typically captures a total of around 400 cells per well. Hoechst33342 images are acquired using an excitation of 360 nm (D360_40x filter), an emission of 460 nm (HQ460_40M filter) and an exposure time of 150 ms. GFP images are acquired using an excitation of 475 nm (S475_20x filter), an emission of 535 nm (HQ535_50M filter) and an exposure time of 1 s. mCherry images are acquired using an excitation of 535 nm (HQ535_50x filter), an emission of 620 nm (HQ620_60M filter) and an exposure time of 1 s. A quadruple band pass mirror is used for all images. • 5. Image analysis. The InCell Analysis software is used to analyze the images using the Multi Target Analysis algorithm. First, nuclei are detected in the Hoechst33342 image using top-hat segmentation and a minimal nuclear area of 50 μm^2. Cells are defined using a collar of 10 μm around the nuclei. Second, puncta (organelles) are identified in the mCherry image inside the cells using multi-top-hat segmentation. Third, the mask of the mCherry puncta is transferred onto the GFP image. Fourth, the GFP fluorescence intensity inside the mCherry puncta mask is measured (reference intensity). • 6. The ‘organelles’ parameter reflects mCherry-positive puncta of the mCherry-GFP-LC3 reporter and is used to calculate ‘LC3 puncta/cell’. […]

[2] = tested on: cellular mTOR kinase activity (phosphorylation of Thr 389 of S6K1) in TSC1-/- MEFs; assay: Test 2: Cellular mTOR assay (P-P70S6K T389 Surefire); assay type: cell-based; details: Mus musculus
Experimental: Test 2: Cellular mTOR Assay
30 μl are added per well to a 384 well-plate using a Multidrop instrument (Thermo scientific), resulting in 4000 cells/well. The plates are incubated at 37° C./5% CO2 for 20 hours (to allow for settling and adherance to the surface).
Eight 3-fold serial dilutions of test-compounds (beginning at 1.8 mM) are prepared in 90% DMSO and compiled on 384 well master plates (Greiner). A pan-pPI3K/mTOR inhibitor (0.8 mM of 8-(6-methoxy-pyridin-3-yl)-3-methyl-1-(4-piperazin-1-yl-3-trifluoromethyl-phenyl)-1,3-dihydro-imidazo[4,5-c]quinolin-2-one in 90% DMSO) is added to the wells for the low control. 90% DMSO is added to the wells for the high controls. Compounds are provided as 250 nl shots (Hummingbird) in 384 well-polypropylene microplates (compound plates). 50 μl of growth medium is added to the compound plates (dilution 1:200) with the Multidrop. After shaking (1 min at 2000 rpm), 10 μl of the first dilution is then transferred to the cell plate with a Matrix Plate Mate 2×3 pipettor (final dilution 1:4). After 1 hour of treatment, medium is removed from the plate and 20 μl of Surefire lysis buffer is added per well with the Multidrop.
Cell lysates are frozen for 15 minutes, thawed with shaking and transferred to the experimental 384 well-Proxiplate (5 μl/well) for the P-P70S6K (T389) Surefire assay (Perkin Elmer #TGR70S50). The first mix is composed of the reaction buffer (containing the specific antibody), the activation buffer and the acceptor beads (40 vol, 10 vol and 1 vol respectively). 5 μl per well is added to the lysates with a Zephyr® SPE Workstation (Caliper Life Sciences) and incubated for 2 hours with shaking at room temperature. After this incubation time, the second mix of dilution buffer and donor beads (20 vol and 1 vol respectively) is added to the plate with the same instrument (2 μl/well). After 2 hours, the plate can be read with an EnVision® Multilabel Reader (Perkin Elmer). Since the beads are light sensitive, their transfer and incubation is executed in a dark room (greenlight).
The raw data is used to generate dose response curves for test compounds and IC50 values calculated therefrom.

[3] = target: recombinant human mTOR (Homo sapiens (Human), UniProt P42345); assay: Test 1: mTOR ATP-binding assay based on TR-FRET; details: GST-tagged truncated human mTOR, tracer-314, TR-FRET
Sequence of recombinant human mTOR (P42345 1360-2549): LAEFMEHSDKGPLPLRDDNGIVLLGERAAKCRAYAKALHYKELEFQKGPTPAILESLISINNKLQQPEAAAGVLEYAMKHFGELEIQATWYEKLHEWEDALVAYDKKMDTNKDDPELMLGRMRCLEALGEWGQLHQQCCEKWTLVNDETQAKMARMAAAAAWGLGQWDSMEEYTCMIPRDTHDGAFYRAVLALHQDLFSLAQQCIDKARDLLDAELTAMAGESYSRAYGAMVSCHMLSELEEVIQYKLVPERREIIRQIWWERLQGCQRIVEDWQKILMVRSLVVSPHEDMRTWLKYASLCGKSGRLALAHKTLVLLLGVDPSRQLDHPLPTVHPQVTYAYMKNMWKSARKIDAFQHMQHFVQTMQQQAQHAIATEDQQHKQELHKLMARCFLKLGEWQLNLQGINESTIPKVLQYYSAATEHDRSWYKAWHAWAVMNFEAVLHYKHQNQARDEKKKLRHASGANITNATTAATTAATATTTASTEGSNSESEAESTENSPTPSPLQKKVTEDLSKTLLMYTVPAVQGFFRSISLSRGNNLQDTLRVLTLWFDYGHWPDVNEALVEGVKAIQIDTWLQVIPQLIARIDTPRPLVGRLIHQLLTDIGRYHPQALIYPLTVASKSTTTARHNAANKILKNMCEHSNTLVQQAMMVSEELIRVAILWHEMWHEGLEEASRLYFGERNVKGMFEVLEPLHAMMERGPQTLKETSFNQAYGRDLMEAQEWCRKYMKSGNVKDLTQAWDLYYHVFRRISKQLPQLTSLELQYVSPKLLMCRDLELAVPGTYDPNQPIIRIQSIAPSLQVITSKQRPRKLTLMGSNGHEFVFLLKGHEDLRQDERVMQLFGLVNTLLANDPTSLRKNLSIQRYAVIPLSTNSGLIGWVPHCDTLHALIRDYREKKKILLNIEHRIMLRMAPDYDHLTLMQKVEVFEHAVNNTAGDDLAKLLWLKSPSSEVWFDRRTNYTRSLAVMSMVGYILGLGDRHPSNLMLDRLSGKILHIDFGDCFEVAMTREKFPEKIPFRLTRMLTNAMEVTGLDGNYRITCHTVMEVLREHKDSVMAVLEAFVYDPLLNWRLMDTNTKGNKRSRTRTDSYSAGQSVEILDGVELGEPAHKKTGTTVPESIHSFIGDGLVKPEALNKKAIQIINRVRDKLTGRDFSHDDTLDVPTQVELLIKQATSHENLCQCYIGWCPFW
Experimental: Test 1: mTOR ATP-Binding Assay Based on TR-FRET for Recombinant Human mTOR
2. The final volume of the assay is 10 μL and the order of addition is as follows:
50 nL of compounds dilution;
Incubated for 60 minutes at room temperature.
TR-FRET measured in Biotek Synergy2 reader at: • Excitation 340 nm/emission 665 nm • Excitation 340 nm/emission 620 nm
The following final concentrations are used:
1 nM Europium anti-GST antibody;
The following controls are used:
3. IC50 determinations may be performed as follows:
The Emission ratio is converted to percentage of inhibition for each compound concentration. IC50 values are calculated by fitting a sigmoidal dose-response curve to a plot of assay readout over compound concentration. All fits and analysis are performed with the program XLfit4 (ID Business Solutions, Guildford, UK).

[4] = TSC1-/- MEFs, 1 hour treatment, P-P70S6K (T389), read-out: Test 2: T389 cellular assay IC50
[5] = 1 h, read-out: Test 2: T389 cellular assay IC50 (nM)

IC50 [2, 4] | SMILES | Test 3: Autophagy EC50 (nM) [1] | IC50 [3] | EC50 [1] | IC50 [2, 5]
806 nM | C[C@H]1COCCN1c1nc(N2CCOC[C@@H]2C)c2nc(-c3ccccn3)[nH]c2n1 [Example 8, 2,6-Bis-((S)-3-methyl-morpholin-4-yl)-8-pyridin-2-yl-9H-purine] | n.m. | 1030 nM |  | 
190 nM | C[C@@H]1COCCN1c1nc(N2CCOC[C@H]2C)c2nc(-c3cc[nH]n3)[nH]c2n1 [Example 11, 2,6-Bis-((R)-3-methyl-morpholin-4-yl)-8-(1H-pyrazol-3-yl)-9H-purine] |  | 385 nM | 1520 nM | 
997 nM | C[C@@H]1COCCN1c1nc(N2CCOC[C@@H]2C)nc2[nH]c(-c3ccccn3)nc12 [Example 7, 2-((S)-3-Methyl-morpholin-4-yl)-6-((R)-3-methyl-morpholin-4-yl)-8-pyridin-2-yl-9H-purine] |  | 184 nM | 1320 nM | 
 | COc1cc(-c2nc3c(N4CCOC[C@H]4C)nc(N4CCOC[C@@H]4C)nc3[nH]2)c2cc[nH]c2c1 [Example 31, 8-(6-Methoxy-1H-indol-4-yl)-2-((S)-3-methyl-morpholin-4-yl)-6-((R)-3-methyl-morpholin-4-yl)-9H-purine] |  | 28 nM | 145 nM | 71 nM
 | C[C@@H]1COCCN1c1nc(N2CCC(C(F)(F)F)CC2)nc2[nH]c(-c3cccc4[nH]ccc34)nc12 [Example 22, 8-(1H-Indol-4-yl)-6-((R)-3-methyl-morpholin-4-yl)-2-(4-trifluoromethyl-piperidin-1-yl)-9H-purine] |  | 1510 nM | 1680 nM | 1040 nM
 | CCC[C@@H]1COCCN1c1nc(N2CCOC[C@H]2C)c2nc(-c3cccc4[nH]ccc34)[nH]c2n1 [Example 12, 8-(1H-Indol-4-yl)-6-((R)-3-methyl-morpholin-4-yl)-2-((R)-3-propyl-morpholin-4-yl)-9H-purine] |  | 194 nM | 674 nM | 534 nM
 | C[C@@H]1COCCN1c1nc(N2CCOC[C@H]2C)c2nc(-c3cc(CO)cc4[nH]ccc34)[nH]c2n1 [Example 6, {4-[2,6-Bis-((R)-3-methyl-morpholin-4-yl)-9H-purin-8-yl]-1H-indol-6-yl}-methanol] |  | 66 nM | 423 nM | 1180 nM
1140 nM | C[C@H]1COCCN1c1nc(N2CCOC[C@@H]2C)c2nc(-c3ccc(-c4ncc[nH]4)cc3)[nH]c2n1 [Example 30, 8-[4-(1H-Imidazol-2-yl)-phenyl]-2,6-bis-((S)-3-methyl-morpholin-4-yl)-9H-purine] |  | 364 nM | 1460 nM | 
1550 nM | C[C@@H]1COCCN1c1nc(N2CCOC[C@H]2C)c2nc(-c3ccc(-c4ncc[nH]4)cc3)[nH]c2n1 [Example 4, 8-[4-(1H-Imidazol-2-yl)-phenyl]-2,6-bis-((R)-3-methyl-morpholin-4-yl)-9H-purine] |  | 2120 nM | 2160 nM | 
1010 nM | C[C@@H]1COCCN1c1nc(N2CCOC[C@H]2C)c2nc(-c3ccccn3)[nH]c2n1 [Example 1, 2,6-Bis-((R)-3-methyl-morpholin-4-yl)-8-pyridin-2-yl-9H-purine] |  | 139 nM | 351 nM | 
 | C[C@@H]1COCCN1c1nc(N2CCN(C)CC2)nc2[nH]c(-c3cccc4[nH]ccc34)nc12 [Example 16, 8-(1H-Indol-4-yl)-6-((R)-3-methyl-morpholin-4-yl)-2-(4-methyl-piperazin-1-yl)-9H-purine] | n.m. | 308 nM |  | 259 nM
135 nM | C[C@H]1COCCN1c1nc(N2CCOC[C@@H]2C)c2nc(-c3cc[nH]n3)[nH]c2n1 [Example 10, 2,6-Bis-((S)-3-methyl-morpholin-4-yl)-8-(1H-pyrazol-3-yl)-9H-purine] |  | 343 nM | 1440 nM | 
 | C[C@H]1COCCN1c1nc(N2CCOC[C@@H]2C)c2nc(-c3ccc(N)nc3)[nH]c2n1 [Example 27, 5-[2,6-Bis-((S)-3-methyl-morpholin-4-yl)-9H-purin-8-yl]-pyridin-2-ylamine] |  | 2410 nM | 4740 nM | 1190 nM
 | C[C@@H]1COCCN1c1nc(N2CCCOCC2)nc2[nH]c(-c3cccc4[nH]ccc34)nc12 [Example 3, 8-(1H-Indol-4-yl)-6-((R)-3-methyl-morpholin-4-yl)-2-[1,4]oxazepan-4-yl-9H-purine] |  | 164 nM | 422 nM | 76 nM
 | COC(=O)c1cc(-c2nc3c(N4CCOC[C@H]4C)nc(N4CCOC[C@H]4C)nc3[nH]2)c2cc[nH]c2c1 [Example 32, 4-[2,6-Bis-((R)-3-methyl-morpholin-4-yl)-9H-purin-8-yl]-1H-indole-6-carboxylic acid methyl ester] |  | 533 nM | > 6000 nM | 1120 nM
